Results taken from ChEMBL document CHEMBL1944573, “New bisabolane sesquiterpenoids from a marine-derived fungus Aspergillus sp. isolated from the sponge Xestospongia testudinaria” (Bioorg Med Chem Lett, 2012).
≈ marks a conversion by molar mass, not a printed value.

What was measured:
HepG2 = experiment: Cytotoxicity against human HepG2 cells by MTT assay; assay type: functional, cell-based
Ca-Ski = experiment: Cytotoxicity against human CaSki cells by MTT assay; assay type: functional, cell-based

CC(C)CCC[C@](C)(O)c1ccc(COc2cc(CO)ccc2[C@@](C)(O)CCCC(C)C)cc1O [DISYDONOL A]
IC50 (HepG2): 9.31 µg/mL (≈ 19.1 µM) | IC50 (Ca-Ski): 12.4 µg/mL (≈ 25.5 µM)

CC(C)CCC[C@](C)(O)c1ccc(CO)cc1Oc1cc(CO)ccc1[C@](C)(O)CCCC(C)C [DISYDONOL B]
IC50 (HepG2): > 100 µg/mL | IC50 (Ca-Ski): > 100 µg/mL

CC(C)CCC[C@](C)(O)c1ccc(Cc2cc([C@@](C)(O)CCCC(C)C)c(O)cc2CO)cc1O [DISYDONOL C]
IC50 (HepG2): 2.91 µg/mL (≈ 5.98 µM) | IC50 (Ca-Ski): 10.2 µg/mL (≈ 21 µM)
